3 compounds from patent US9987209B2, “Multi-functional composition for cosmetic formulations” (Arch Chemicals, Inc., priority 2013, dated 2018) can be followed below.

What all share (experiment): minimum inhibitory concentration (MIC), microtiter broth dilution
Common to all, as to format: cell-based
For orientation: Dilution methods test growth across graded concentrations, often in twofold steps.

Assay [1] has as its system Burkholderia cepacia ATCC 25416. To be noted: Table 2, ppm per product, stock solutions in alcohol, 35° C. for 2 days; for MIC: Burkholderia cepacia, ATCC25416, 48 h, read-out: minimum inhibitory concentration (MIC), B. cepacia. The method, then: (§1) The following compositions were formulated and tested for antimicrobial efficacy. In particular, the compositions were tested for minimum inhibitory concentration (MIC).
(§2) Staphylococcus aureus ATCC 6538, Pseudomonas aeruginosa ATCC 9027, Klebsiella pneumonia ATCC 4352, Burkholderia cepacia ATCC 25416, Enterobacter gergoviae ATCC 33028, Candida albicans ATCC 10231, Aspergillus brasiliensis ATCC 16404, and 2 Penicillium sp. were revived from refrigerated slants and plated on TSA plates for bacteria, SDA plates for yeast, and PDA plates for mold. The broth media used for MIC determination on microtiter plates were TSB for bacteria and SDB for fungi.
(§3) All prepared solutions were considered as products and were tested at the concentration starting at 10,000 ppm per product. Samples were diluted with 2-fold serial dilution into the appropriate broth media on microtiter plates. The bacterial inoculum at concentration of 1×10^6 CFUs/mL and fungal inoculum at concentration of 1×10^5 cells or spores/mL were suspended in regular strength broth and added to the wells in 1:1 ratio to the sample/medium mixtures on microtiter plates. The final concentration of bacteria was 5×10^5 CFUs/mL; the final concentration of fungi was 5×10^4 cells or spores/mL. Bacterial plates were incubated at 35° C. for 2 days and fungal plates were incubated at 28° C. for 5 days before reading results.

For assay [2], the system named is Enterobacter gergoviae ATCC 33028. To be noted: Table 2, ppm per product, stock solutions in alcohol, 35° C. for 2 days; for MIC: Pluralibacter gergoviae, ATCC33028, 48 h, read-out: minimum inhibitory concentration (MIC), E. gergoviae. As for the experimental part:
as §1, §2, §3

Assay [3] relates to Klebsiella pneumonia ATCC 4352. Particulars: Table 2, ppm per product, stock solutions in alcohol, 35° C. for 2 days; for MIC: Klebsiella pneumoniae, ATCC4352, 48 h, read-out: minimum inhibitory concentration (MIC), K. pneumonia. As for the experimental part:
as §1, §2, §3

Another assay deals with Penicillium sp. To be noted: Table 2, ppm per product, stock solutions in alcohol, 28° C. for 5 days; for MIC: Penicillium, 120 h. The method, then:
as §1, §2, §3

In assay [4] the test system is Staphylococcus aureus ATCC 6538. Particulars: Table 2, ppm per product, stock solutions in alcohol, 35° C. for 2 days; for MIC: Staphylococcus aureus, ATCC6538, 48 h, read-out: minimum inhibitory concentration (MIC), S. aureus. The method, then:
as §1, §2, §3
(§4) In this example, two compositions made according to the present disclosure were tested for minimum inhibitory concentration (MIC) as described in Example No. 1. In this example, the first sample tested was the same as Sample No. 4 described above in Example No. 1. The second sample (Sample No. 8) was identical to Sample No. 4 except 1,3 propanediol was replaced with 1,5 pentanediol. […]

In assay [5] the test system is Aspergillus brasiliensis ATCC 16404. To be noted: Table 2, ppm per product, stock solutions in alcohol, 28° C. for 5 days; for MIC: Aspergillus brasiliensis, ATCC16404, 120 h. The method, then:
as §1, §2, §3, §4

The test system of assay [6] is Candida albicans ATCC 10231. Particulars: Table 2, ppm per product, stock solutions in alcohol, 28° C. for 5 days; for MIC: Candida albicans, ATCC10231, 120 h. The method, then: as §1, §2, §3, §4
For assay [7], the system named is Pseudomonas aeruginosa ATCC 9027. Particulars: Table 2, ppm per product, stock solutions in alcohol, 35° C. for 2 days; for MIC: Pseudomonas aeruginosa, ATCC9027, 48 h, read-out: minimum inhibitory concentration (MIC), Ps. aeruginosa. As for the experimental part:
as §1, §2, §3, §4

Values after ≈ are worked out from the molar mass of the structure shown. Some results are limits rather than exact numbers.

As to `CCCCCCCC(=O)O` [2.5% Octanoic Acid, Octanoic Acid], the MIC was 10000 µg/mL (≈ 69.3 mM) in assay [1]; more than 10000 µg/mL in assay [2]; more than 10000 µg/mL in assay [3]; 7500 µg/mL (≈ 52 mM) against Penicillium sp.; more than 10000 µg/mL in assay [4]; more than 10000 µg/mL in assay [5]. Further, the MIC in assay [6] amounted to 2500 µg/mL (≈ 17.3 mM); in assay [7], 10000 µg/mL (≈ 69.3 mM).
For the compound `COc1cc(C=O)ccc1O` [20% Vanillin, Vanillin], the MIC in assay [1] was found to be 5000 µg/mL (≈ 32.9 mM); in assay [2], 10000 µg/mL (≈ 65.7 mM); in assay [3] it was 10000 µg/mL (≈ 65.7 mM); in the assay with Penicillium sp., 2500 µg/mL (≈ 16.4 mM); in assay [4], 10000 µg/mL (≈ 65.7 mM); in assay [5] it was 5000 µg/mL (≈ 32.9 mM). Moreover, the figures for the MIC in assay [6] and in assay [7] were 2500 µg/mL (≈ 16.4 mM) and 5000 µg/mL (≈ 32.9 mM), respectively.
As to `OCCCO` [50% 1,3-Propanediol, 1,3-Propanediol], the “minimum inhibitory concentration (MIC), B. cepacia” value in assay [1] was 10,000 ppm. Also, the “minimum inhibitory concentration (MIC), E. gergoviae” value in assay [2] is on record as >10,000 ppm. In addition, in assay [3], the “minimum inhibitory concentration (MIC), K. pneumonia” value is recorded as >10,000 ppm. Further, in the assay on Penicillium sp., the “minimum inhibitory concentration (MIC), Penicillium sp.” value was >10,000 ppm. Besides, the “minimum inhibitory concentration (MIC), S. aureus” value in assay [4] is recorded as >10,000 ppm. Also, the “minimum inhibitory concentration (MIC), A. brasiliensis” value in assay [5] is on record as >10,000 ppm. Also, the “minimum inhibitory concentration (MIC), C. albicans” value in assay [6] is given as 10,000 ppm. In addition, the “minimum inhibitory concentration (MIC), Ps. aeruginosa” value in assay [7] is 10,000 ppm.
